In patent publication US8901177B2, “Method of treating bladder disorders” (Targacept, Inc., priority 2012, dated 2014):
Where two headings read alike, the source gives them in different places.

Key:
[1] = racemic Inversine 2.5 mg BID, spinal cord injury subjects; cited from earlier work
human α3β4 channels = target: T1, human α3β4 channels (Homo sapiens, UniProt P30926+P32297); assay: Use-dependent inhibition of human α3β4 channels expressed in CHO cells (Dynaflow electrophysiology); format: cell-based
T1 construct: host or cells: CHO cells
Description: There was an assumption that the dependence on the number of co-applications would be the most relevant to clinical concentrations, since upon the time of exposure in vivo, the number of open channels could reach substantial numbers; perhaps due to channel spontaneous opening, flickering, and endogenous transmitter release as a result of brain activity. All experiments were performed using a conventional Dynaflow (Cellectricon Inc.) electrophysiological system. Dynaflow settings: To achieve continuous exposure to the drug we used following Dynaflow chip loading. An example of standard chip loading for use-dependent experiments with example for 30 μM ACh and 0.1 μM of TC-05231 (racemic mecamylamine). For the following experiments, ACh always consisted of 30 μM and concentrations of compounds were, 0.03, 0.1, 0.3 and 1.0 (μM). FIG. 13 illustrates the settings.
Applications were performed by positioning the cell in front of channel #1 for 1 second, followed by channel #3, then back to channel #1 by rapidly moving the Dynaflow chip, which consisted of both the laminar flow from the channels and the entire bath solution. The additional channels between control and ACh-containing channel were used: (1) to provide the needed space for an additional washout to avoid contaminating the control channels with the agonist solution; and (2) to allow for the necessary amount of time for the Dynaflow stage to reach its optimum scanning speed.
3.1. Establishment of recording baseline: First, pipette with cells moved to channel #3. Then cells were exposed to ACh by moving cells to channel #1 for 1 second and back to channel #3. This movement of cells was repeated 10 times at 30 second intervals;
3.2. Collection data on use-dependent inhibition: After establishment of stable baseline, cells were moved to channel #6 and exposed to a test compound for 30 sec. Then cells were moved to channel #8 for 1 second and back to channel #6 for 30 seconds (total 10 times with intervals 30 seconds); and 3.3. To test reversibility of block (washout): repeat step 1. Note: with this chip setting, during repeated application of acetylcholine plus test compound, there was no interruption in application of compounds. For all calculations, peak current amplitude was normalized to the peak current amplitude evoked by the 10th application of acetylcholine. Experimental Results

NMDA receptor NR1a-NR2A = NMDA receptor NR1a-NR2A (Homo sapiens, UniProt Q05586+Q12879); assay: Glutamate-evoked currents at NR1a-NR2A receptors in Xenopus oocytes (two electrode voltage-clamp); format: cell-based; settings: for recovery following wash-out: after sustained exposure
Description: All experiments were carried out at receptors expressed in Xenopus oocytes using the method of cDNA expression. Currents evoked by glutamate were recorded using the standard two electrode voltage-clamp configuration (TVEC). Xenopus oocytes were prepared and injected using standard procedures.
Briefly, ovaries are harvested from Xenopus Laevis females that have been deeply anesthetized and pithed following the animal rights rule from the Geneva canton. A small piece of ovary is isolated for immediate preparation while the remaining part is placed at 4° C. in a sterile Barth solution containing in mM NaCl 88, KCl 1, NaHCO3 2.4, HEPES 10, MgSO4.7H2O 0.82, Ca(NO3)2.4H2O 0.33, CaCl2.6H2O 0.41, at pH 7.4, and supplemented with 20 μg/ml of kanamycine, 100 unit/ml penicillin and 100 μg/ml streptomycin. On the second day following dissociation, oocytes are injected with 2 ng of cDNA per oocyte containing the NR1a-NR2A or NR1a-NR2B using an automated injector (Hogg et al., J. Neurosci. Methods, 2008). […] Cells were held at −80 mV. Data were filtered at 10 Hz, captured at 100 Hz and analyzed using HiQ proprietary data acquisition and analysis software running under Matlab (Mathworks Inc.).
Oocytes expressing the NR1a-NR2A or NR1a-NR2B receptors were challenged at periodic intervals with a glutamate test pulse. Test drug was then applied during a sustained period and its effects monitored by measuring the amplitude and time course of the glutamate evoked currents.
Experiments were carried out with the NR1a-NR2A and NR1a-NR2B at least in triplicate. Positive reference compounds (ketamine and MK-801) were tested using the same protocol.
To further evaluate effects of TC-5214, experiments using sustained exposure to this compound followed by a recovery period were carried out at NR1a-NR2A and NR1a-NR2B receptors. Measurements were made with (nM) 0, 3, 10, 30, 100, 300, TC-5214 and recovery monitored during 10 minutes. In addition, the same experimental protocol will be used with cells in control conditions to assess the stability of the measurements. Effects were measured in at least three cells.
A use-dependent protocol was used to identify non-competitive inhibition of the receptors. Cells expressing the NMDA receptors were tested for their sensitivity to TC-5214 at 30 nM, using the same protocol as described above. Cells from the same batch were tested in parallel using the same incubation time with an identical concentration of TC-5214 (30 nM) but in absence of pulses during the incubation time with the compound. Two glutamate pulses were applied at the end of the incubation time, and recovery monitored as for the control conditions.

[2] = TC-5213 28-day repeated oral toxicity study in rats; format: in vivo, rat
Description: Eighty rats (40/sex) were assigned to 4 groups of 10/sex/group. Test article in purified water or water (vehicle) alone were administered once daily via oral gavage at a dose volume of 10 mL/kg. The dose levels were 0, 1, 10, and 50 mg/kg/day. Animals were given TC-5213-23 orally (gavage) for 28 days except those given the test article at 50 mg/kg from Day 1 to 7, followed by a dose of 40 mg/kg/day on the subsequent 21 days. The dose levels were calculated based on the free base form of the test article.

[3] = tested on: bladder function in conscious rats; assay: Intravesical model in conscious rats, first study (UROsphere), cystometry; format: in vivo, rat; settings: tolterodine 10 μM, TC-5213 1 and 10 μM, hexamethonium 10 μM, TC-5214 0.1, 1 and 10 μM
Source text: (1) In a first study (performed by UROsphere), female Sprague Dawley rats (200-270 g) from Charles River France, housed in 3-4 rats per cage were anesthetized with isoflurane (1.5-3%). […], a polyethylene catheter was implanted in the bladder through the dome and exteriorized at the scapular level. Each rat was housed individually after surgery. The cystometry is depicted in FIG. 2. This is the first known experiment using the intravesical model in conscious rats to test dexmecamylamine for potential efficacy in treating OAB.
The effects of dosing dexmecamylamine (also referred to as TC-5214 and as TI-11179), at doses of 0.1, 1, and 10 μM are depicted in FIG. 4.
The effects of dosing hexamethonium (10 μM) and tolterodine (10 μM) are depicted in FIG. 5.

[4] = tested on: nicotinic receptors expressed in rat urinary bladder epithelial cells; settings: intravesical; nicotine 0.05 and 1 μM, hexamethonium 10 and 100 μM, choline 10 and 100 μM; cited from earlier work
[5] = tested on: bladder function in anesthetized rats; assay: Intravesical model in anesthetized rats (increased bladder contraction frequency), cystometry; format: in vivo, rat; settings: 10 μM intravesical
Description: Female Sprague Dawley rats (200-290 g) from Charles River France, housed in 3-4 rats per cage were anesthetized with urethane (1.2 g/kg) s.c., 3 mL/kg). A polyethylene catheter was implanted into the bladder through the dome. Ureters were tied and cut. Intravesical infusion periods with saline followed by an intravesical infusion period with one of the test compounds, hexamethonium (10 μM) or dexmecamylamine (1 and 10 μM), are depicted in FIG. 7.
The intravesical anesthetized rat model is a model of increased bladder contraction frequency. The model is a “simplified” well established model used to evaluate OAB agents, recognizing that there are decreased inputs from cortical centers. This is the first known experiment using the intravesical anesthetized rat model of increased bladder contraction frequency to test dexmecamylamine for potential efficacy in treating OAB.

[6] = 50 mg/kg/day oral, first week, after three to seven doses

T1 sequence (P32297 32-505): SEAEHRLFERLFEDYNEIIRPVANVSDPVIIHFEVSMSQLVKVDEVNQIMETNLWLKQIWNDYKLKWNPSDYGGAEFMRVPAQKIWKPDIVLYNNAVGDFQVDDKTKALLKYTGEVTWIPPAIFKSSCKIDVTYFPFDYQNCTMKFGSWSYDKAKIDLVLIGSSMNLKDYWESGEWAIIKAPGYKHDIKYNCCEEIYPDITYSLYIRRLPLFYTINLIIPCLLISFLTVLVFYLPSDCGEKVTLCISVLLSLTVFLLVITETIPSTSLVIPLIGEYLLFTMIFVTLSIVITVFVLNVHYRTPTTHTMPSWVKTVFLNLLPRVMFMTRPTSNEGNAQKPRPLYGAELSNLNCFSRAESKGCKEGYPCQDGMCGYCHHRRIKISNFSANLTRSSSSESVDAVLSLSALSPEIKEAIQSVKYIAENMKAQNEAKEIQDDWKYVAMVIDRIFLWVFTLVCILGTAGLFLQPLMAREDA
T1 sequence (P30926 22-498): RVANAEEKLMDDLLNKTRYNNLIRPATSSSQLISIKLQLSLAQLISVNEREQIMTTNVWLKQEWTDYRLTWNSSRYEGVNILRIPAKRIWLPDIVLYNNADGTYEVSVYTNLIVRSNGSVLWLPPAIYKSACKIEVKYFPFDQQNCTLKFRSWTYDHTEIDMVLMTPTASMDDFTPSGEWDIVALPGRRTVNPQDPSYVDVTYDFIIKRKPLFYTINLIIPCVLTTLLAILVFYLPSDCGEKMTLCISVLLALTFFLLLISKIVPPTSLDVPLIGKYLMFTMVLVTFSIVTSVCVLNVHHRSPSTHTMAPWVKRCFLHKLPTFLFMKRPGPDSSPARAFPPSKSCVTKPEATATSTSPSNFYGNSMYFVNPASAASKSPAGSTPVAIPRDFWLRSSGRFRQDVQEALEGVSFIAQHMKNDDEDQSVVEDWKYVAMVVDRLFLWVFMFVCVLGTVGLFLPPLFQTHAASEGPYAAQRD
Sequence of NMDA receptor NR1a-NR2A (Q12879 23-1464, other chains not shown): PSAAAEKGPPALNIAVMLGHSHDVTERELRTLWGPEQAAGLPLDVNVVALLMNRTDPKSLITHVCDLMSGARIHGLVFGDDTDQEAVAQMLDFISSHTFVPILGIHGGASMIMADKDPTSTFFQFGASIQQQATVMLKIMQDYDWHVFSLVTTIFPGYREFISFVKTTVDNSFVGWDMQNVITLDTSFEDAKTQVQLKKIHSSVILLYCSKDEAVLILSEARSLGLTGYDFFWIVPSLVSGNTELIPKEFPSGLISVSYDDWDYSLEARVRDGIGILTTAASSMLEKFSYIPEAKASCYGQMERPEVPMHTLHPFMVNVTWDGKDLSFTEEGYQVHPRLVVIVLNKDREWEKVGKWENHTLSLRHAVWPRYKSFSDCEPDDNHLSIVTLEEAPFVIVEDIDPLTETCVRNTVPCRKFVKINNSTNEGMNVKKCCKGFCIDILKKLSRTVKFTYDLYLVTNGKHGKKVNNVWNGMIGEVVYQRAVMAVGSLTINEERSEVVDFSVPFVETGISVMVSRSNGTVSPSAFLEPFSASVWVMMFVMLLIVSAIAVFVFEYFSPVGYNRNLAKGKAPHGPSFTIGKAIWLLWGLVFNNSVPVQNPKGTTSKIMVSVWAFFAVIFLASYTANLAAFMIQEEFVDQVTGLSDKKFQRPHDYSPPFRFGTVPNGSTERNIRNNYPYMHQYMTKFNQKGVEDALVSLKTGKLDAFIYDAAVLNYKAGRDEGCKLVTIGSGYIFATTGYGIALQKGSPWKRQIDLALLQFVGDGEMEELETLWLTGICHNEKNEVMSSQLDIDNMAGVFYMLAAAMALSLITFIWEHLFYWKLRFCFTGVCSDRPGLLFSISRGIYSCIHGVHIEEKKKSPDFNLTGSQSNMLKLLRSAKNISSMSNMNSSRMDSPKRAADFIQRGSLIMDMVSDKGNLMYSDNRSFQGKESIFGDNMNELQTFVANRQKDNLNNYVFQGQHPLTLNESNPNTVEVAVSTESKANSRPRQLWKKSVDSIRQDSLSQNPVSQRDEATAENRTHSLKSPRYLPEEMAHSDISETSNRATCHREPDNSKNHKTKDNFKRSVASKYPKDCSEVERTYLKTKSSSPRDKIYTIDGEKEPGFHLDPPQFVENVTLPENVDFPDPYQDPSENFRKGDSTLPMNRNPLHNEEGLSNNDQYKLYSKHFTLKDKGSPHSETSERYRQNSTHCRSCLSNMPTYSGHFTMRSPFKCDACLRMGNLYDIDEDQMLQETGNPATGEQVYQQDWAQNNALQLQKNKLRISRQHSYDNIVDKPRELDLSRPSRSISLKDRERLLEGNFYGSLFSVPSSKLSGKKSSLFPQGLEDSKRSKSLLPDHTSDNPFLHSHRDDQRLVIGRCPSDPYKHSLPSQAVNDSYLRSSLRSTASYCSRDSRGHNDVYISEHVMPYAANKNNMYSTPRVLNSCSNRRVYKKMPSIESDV

In the case of `CNC1(C)C2CCC(C2)C1(C)C.Cl` (racemic) [TC-5231, N,2,3,3-tetramethylbicyclo[2.2.1]heptan-2-amine hydrochloride, reference compound], the “bladder electric potential (amplitude of contraction)” value [1] is listed as “decrease in bladder electric potential (amplitude of contraction)”, the “Inhibition by (%)” value (human α3β4 channels; 100 nM compound, after 10 co-applications of 30 uM Ach and compound, hydrochloride) is listed as 25% ± 7% and the activity at 0.03 µM (human α3β4 channels; CHO, 30 nM compound + 30 μM ACh, successive grid rows = co-applications 1 to 10, control = 100, read-out: peak current amplitude normalized to 10th ACh application, use-dependent inhibition box) is listed as 99.3%. The activity at 0.1 µM (human α3β4 channels; CHO, 100 nM compound + 30 μM ACh, successive grid rows = co-applications 1 to 10 at 30 s intervals, control = 100, read-out: peak current amplitude normalized to 10th ACh application, use-dependent inhibition box) was 94.5%, the inhibition at 0.1 µM (human α3β4 channels; CHO, 100 nM compound with acetylcholine, read-out: inhibition of human α3β4 receptor (asymptotes to the curve, FIG. 14)) was 20% and the inhibition at 0.1 µM (human α3β4 channels; CHO, 100 nM compound, after 10 co-applications of 30 uM Ach and compound, read-out: Inhibition by (%)) was 24.8%. For the same compound, the “recovery (%)” value (human α3β4 channels; after 100 nM compound, following 10 application of Ach (30 uM) alone) was 105% ± 11% and the “recovery / persistence of inhibition after wash out” value (human α3β4 channels; after 30 and 100 nM compound, agonist alone) was “full recovery”.

For `C[C@]12N[C@H](Cc3ccccc31)c1ccccc12` [MK-801, reference compound], the recovery following wash-out (NMDA receptor NR1a-NR2A) was “little evidence of recovery” and the “inhibition by positive control” value (NMDA receptor NR1a-NR2A; sustained exposure, glutamate test pulses) was “nearly complete inhibition”.

In the case of `CN[C@]1(C)[C@H]2CC[C@H](C2)C1(C)C` [TC-5213, exo-R-mecamylamine], the “distended urinary bladder, full of urine, in early dead animals: females” value ([2]; 50 mg/kg/day oral) is reported as 2, the “distended urinary bladder, full of urine, in early dead animals: males” value ([2]; 50 mg/kg/day oral) is reported as 3 and the “early deaths, females” value [2, 6] is reported as 5/10. The “early deaths, males” value [2, 6] was 4/10, the “mortality, organ weight and microscopic changes” value ([2]; 50→40 mg/kg/day daily oral) was “resulted in mortality, organ weight and/or microscopic changes” and the “No-Observed-Effect-Level (NOEL)” value ([2]; 28 days oral, males and females) was 1 mg/kg/day. For the same compound, the opthalmological examinations ([2]; rat, in vivo) was “No test article related changes”, the clinical pathology changes ([2]; rat, in vivo, 40 mg/kg/day) was “slight increases in neutrophils; slight decreases in lymphocyte and platelets; slight increases in ALT, AST, and calcium” and the “organ weights at necropsy” value ([2]; rat, in vivo, 40 mg/kg/day) was “decreased organ weights of prostate gland, seminal vesicles and thymus”. For the same compound, the “significant effects in cystometry” value [3] was “significant effects”.

For `C[N+](C)(C)CCCCCC[N+](C)(C)C` [hexamethonium], the “significant effects on nicotinic receptors expressed in rat urinary bladder epithelial cells” value [4] is given as “significant effects” and the “changes in the frequency of bladder contraction” value [5] is given as “meaningful changes”.

For `CNC1(c2ccccc2Cl)CCCCC1=O` (stereo not shown) [ketamine, reference compound], the recovery following wash-out (NMDA receptor NR1a-NR2A) was “clear evidence for recovery”.

For `CN1CCCC1c1cccnc1` (stereo not shown) [nicotine], the “significant effects on nicotinic receptors expressed in rat urinary bladder epithelial cells” value [4] is listed as “significant effects”.

In the case of `Cc1ccc(O)c([C@H](CCN(C(C)C)C(C)C)c2ccccc2)c1` [tolterodine], the “significant effects in cystometry” value [3] is reported as “significant effects”.
